Test results reported in PMC5835321 (Cancer research, 2017).

Biological target: T1, PPARG (PPAR-gamma) (Homo sapiens, UniProt P37231)
T1 sequence (P37231 231-505 limits assumed): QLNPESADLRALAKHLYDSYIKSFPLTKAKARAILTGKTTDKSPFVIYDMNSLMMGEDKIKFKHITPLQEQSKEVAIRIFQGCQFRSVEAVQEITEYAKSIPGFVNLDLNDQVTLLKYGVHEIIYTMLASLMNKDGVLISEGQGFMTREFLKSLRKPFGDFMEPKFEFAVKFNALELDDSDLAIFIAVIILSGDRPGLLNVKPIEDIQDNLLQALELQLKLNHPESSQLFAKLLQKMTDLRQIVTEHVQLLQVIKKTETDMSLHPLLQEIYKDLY

CN(CCOc1ccc(C[C@H](Nc2ccccc2C(=O)c2ccccc2)C(=O)O)cc1)c1ccccn1 [GW1929]
TR-FRET coactivator recruitment and corepressor release; full agonist: Full agonists, such as rosiglitazone, tesaglitazar, GW1929, and pioglitazone, enhanced interaction between PPARG and MED1 coactivator peptide
